± gives the expanded uncertainty stated by the source.
Test: xn = mol fraction of the nth substance listed
Settings: Liquid, Vibrating tube method

C=C(C)C(=O)OCCN(C)C [2-(dimethylamino)ethyl methylpropenoate] + CCCO
mass density [kg/m3]
Settings | 100 kPa | 5000 kPa | 10000 kPa | 15000 kPa | 20000 kPa | 25000 kPa | 30000 kPa | 35000 kPa
303.15 K, x1 = 0.0307 | – | – | – | – | 820.75 ± 0.56 | 824.03 ± 0.57 | 827.2 ± 0.59 | 830.29 ± 0.6
303.15 K, x1 = 0.0599 | – | – | – | – | 829.13 ± 0.56 | 832.41 ± 0.57 | 835.6 ± 0.58 | 838.73 ± 0.59
303.15 K, x1 = 0.1003 | – | – | – | – | 839.84 ± 0.55 | 843.1 ± 0.56 | 846.24 ± 0.58 | 849.31 ± 0.59
303.15 K, x1 = 0.201 | – | – | – | 858.56 ± 0.54 | 861.95 ± 0.55 | 865.23 ± 0.56 | 868.44 ± 0.57 | 871.66 ± 0.58
303.15 K, x1 = 0.3004 | – | – | – | 875.68 ± 0.54 | 879.16 ± 0.55 | 882.5 ± 0.55 | 885.74 ± 0.56 | 888.87 ± 0.57
303.15 K, x1 = 0.4007 | – | – | – | 889.57 ± 0.54 | 893.03 ± 0.55 | 896.41 ± 0.55 | 899.73 ± 0.56 | 903.03 ± 0.56
303.15 K, x1 = 0.4507 | – | – | – | 895.39 ± 0.54 | 898.86 ± 0.55 | 902.25 ± 0.55 | 905.59 ± 0.56 | 908.92 ± 0.56
303.15 K, x1 = 0.4985 | – | – | – | 900.58 ± 0.54 | 904.06 ± 0.55 | 907.45 ± 0.55 | 910.79 ± 0.56 | 914.12 ± 0.56
303.15 K, x1 = 0.5535 | – | – | – | 905.89 ± 0.54 | 909.38 ± 0.55 | 912.79 ± 0.55 | 916.16 ± 0.56 | 919.52 ± 0.56
303.15 K, x1 = 0.5907 | – | – | – | 909.22 ± 0.54 | 912.68 ± 0.55 | 916.07 ± 0.55 | 919.43 ± 0.56 | 922.81 ± 0.56
303.15 K, x1 = 0.7009 | – | – | – | 917.6 ± 0.54 | 921.09 ± 0.55 | 924.52 ± 0.55 | 927.94 ± 0.56 | 931.39 ± 0.56
303.15 K, x1 = 0.8 | – | – | – | 924.17 ± 0.55 | 927.7 ± 0.55 | 931.16 ± 0.56 | 934.59 ± 0.56 | 938.01 ± 0.56
303.15 K, x1 = 0.9043 | – | – | – | 929.96 ± 0.55 | 933.53 ± 0.56 | 937.03 ± 0.56 | 940.48 ± 0.56 | 943.91 ± 0.57
303.15 K, x1 = 0.9269 | – | – | – | 931 ± 0.55 | 934.55 ± 0.56 | 938.03 ± 0.56 | 941.51 ± 0.56 | 945.01 ± 0.57
303.15 K, x1 = 0.9551 | – | – | – | 932.41 ± 0.55 | 935.97 ± 0.56 | 939.47 ± 0.56 | 942.94 ± 0.56 | 946.41 ± 0.57
313.15 K, x1 = 0.0303 | 797.13 ± 0.52 | 801.51 ± 0.53 | 805.58 ± 0.54 | 809.4 ± 0.55 | 813.02 ± 0.56 | 816.51 ± 0.58 | 819.93 ± 0.59 | 823.33 ± 0.61
313.15 K, x1 = 0.0602 | 805.6 ± 0.52 | 809.95 ± 0.53 | 814.02 ± 0.54 | 817.86 ± 0.55 | 821.5 ± 0.56 | 825 ± 0.57 | 828.39 ± 0.59 | 831.72 ± 0.6
313.15 K, x1 = 0.1007 | 816.21 ± 0.52 | 820.42 ± 0.53 | 824.41 ± 0.54 | 828.2 ± 0.55 | 831.83 ± 0.56 | 835.35 ± 0.57 | 838.78 ± 0.58 | 842.17 ± 0.59
313.15 K, x1 = 0.2003 | 838.07 ± 0.52 | 842.22 ± 0.53 | 846.16 ± 0.53 | 849.93 ± 0.54 | 853.55 ± 0.55 | 857.04 ± 0.56 | 860.44 ± 0.57 | 863.76 ± 0.58
313.15 K, x1 = 0.2989 | 854.98 ± 0.52 | 859.16 ± 0.53 | 863.14 ± 0.53 | 866.94 ± 0.54 | 870.58 ± 0.55 | 874.08 ± 0.56 | 877.48 ± 0.57 | 880.8 ± 0.57
313.15 K, x1 = 0.4005 | 869.05 ± 0.52 | 873.2 ± 0.53 | 877.16 ± 0.54 | 880.94 ± 0.54 | 884.58 ± 0.55 | 888.1 ± 0.56 | 891.52 ± 0.56 | 894.87 ± 0.57
313.15 K, x1 = 0.4513 | 875.07 ± 0.52 | 879.17 ± 0.53 | 883.11 ± 0.54 | 886.91 ± 0.54 | 890.57 ± 0.55 | 894.1 ± 0.56 | 897.51 ± 0.56 | 900.82 ± 0.57
313.15 K, x1 = 0.5026 | 880.52 ± 0.52 | 884.58 ± 0.53 | 888.5 ± 0.54 | 892.29 ± 0.54 | 895.96 ± 0.55 | 899.51 ± 0.56 | 902.95 ± 0.56 | 906.3 ± 0.57
313.15 K, x1 = 0.5521 | 885.29 ± 0.53 | 889.39 ± 0.53 | 893.33 ± 0.54 | 897.12 ± 0.54 | 900.78 ± 0.55 | 904.32 ± 0.55 | 907.74 ± 0.56 | 911.06 ± 0.57
313.15 K, x1 = 0.6025 | 889.7 ± 0.53 | 893.77 ± 0.53 | 897.71 ± 0.54 | 901.52 ± 0.54 | 905.22 ± 0.55 | 908.79 ± 0.55 | 912.25 ± 0.56 | 915.59 ± 0.56
313.15 K, x1 = 0.6976 | 897.07 ± 0.53 | 901.19 ± 0.53 | 905.15 ± 0.54 | 908.97 ± 0.55 | 912.65 ± 0.55 | 916.22 ± 0.56 | 919.67 ± 0.56 | 923.02 ± 0.56
313.15 K, x1 = 0.8037 | 903.96 ± 0.53 | 908.07 ± 0.54 | 912.04 ± 0.54 | 915.87 ± 0.55 | 919.56 ± 0.55 | 923.14 ± 0.56 | 926.61 ± 0.56 | 929.99 ± 0.57
313.15 K, x1 = 0.9043 | 909.46 ± 0.54 | 913.62 ± 0.54 | 917.61 ± 0.55 | 921.46 ± 0.55 | 925.17 ± 0.56 | 928.79 ± 0.56 | 932.32 ± 0.57 | 935.78 ± 0.57
313.15 K, x1 = 0.933 | 910.82 ± 0.54 | 914.96 ± 0.54 | 918.95 ± 0.55 | 922.81 ± 0.56 | 926.56 ± 0.56 | 930.22 ± 0.56 | 933.79 ± 0.57 | 937.29 ± 0.57
313.15 K, x1 = 0.9605 | 912.22 ± 0.54 | 916.36 ± 0.55 | 920.35 ± 0.55 | 924.21 ± 0.56 | 927.96 ± 0.56 | 931.63 ± 0.57 | 935.23 ± 0.57 | 938.78 ± 0.57

Reference: the NIST ThermoML archive (doi:10.1021/acs.jced.8b00975)
